These results are taken from US20090062255A1, “TUMOR-TARGETING EVALUATION METHODOLOGY AND COMPOUNDS RELATED THERETO” (THALLION PHARMACEUTICALS INC., priority 2007, published 2009).

Read-outs that look alike come from different tables or passages of the source.

Data set [1] deals with U 373 astrocytoma cell line. As to the kind of experiment: MTT cytotoxicity, U 373 cell line. It counts as cell-based. To be noted: U373 MG, 96 h, Human. The protocol:
(§1) The cytotoxic activity of Compound 1 was further evaluated using a panel of brain tumor cell lines. This study was performed in collaboration with INSERM (Grenoble, France). Tumor cells (5,000 to 10,000 cells per well depending on their doubling time) were plated in 96-well flat-bottom plates and incubated for 24 hours before treatment. Tumor cells were then incubated for 96 hours with seven different concentrations of Compound 1: […], 0.01, and 0.001 μM. The in vitro cytotoxic activity was determined by a standard MTT assay.

A further data set has as its system brain tumor cell lines. The data set can be described thus: MTT cytotoxicity, panel of brain tumor cell lines (summary). It is filed as cell-based. To be noted: 96 hours; read-out: IC50 values against brain tumor cell lines, range. The protocol: as §1
Data set [2] relates to GHD astrocytoma cell line. As to the kind of experiment: MTT cytotoxicity, GHD cell line. It counts as cell-based. To be noted: 96 h, Human. The protocol:
as §1

In data set [3] the test system is Phospho-ERK (Ras-MAPK signaling pathway). The data set can be described thus: ERK phosphorylation ELISA assay (FACE) in MCF-7 cells. To be noted: 6 hours, EGF 100 ng/mL for 5 min. It counts as cell-based, human. The protocol:
Human breast tumor MCF-7 cells were plated in 96-well culture plates (10,000 cells per well) in RPMI containing 10% FBS. After an overnight incubation, the medium is changed to low serum conditions (RPMI containing 0.1% FBS) for 18 h. Cells were then treated with ECO-4601 or selected analogs for 6 hours and then stimulated by the addition of EGF (100 ng/mL for 5 min) to induce the MAPK pathway. UO126 is a commercial inhibitor (Promega, Madison, Wis.) of mitogen-activated protein kinase kinase (MEK1/ERK). Following stimulation, cells were rapidly fixed, which preserved activation-specific protein modifications. Each well was then incubated with an antibody specific for Phospho-ERK or total ERK. After an one-hour incubation and several washes, cells were incubated with a secondary HRP-conjugated antibody followed by a developing solution that provided a colorimetric readout that is quantitative and reproducible. The Fast Activated Cell-based ELISA (FACE™) is commercially available (Active Motif, Carlsbad, Calif.).

For a further data set, the system named is 9L gliosarcoma cell line. The data set can be described thus: MTT cytotoxicity, 9L cell line. It counts as cell-based. To be noted: 96 h, Rat. The protocol:
as §1

For data set [4], the system named is 60 different human tumor cell lines. The data set can be described thus: NCI in vitro screening, 60 human tumor cell lines. To be noted: for GI50: Homo sapiens. It is filed as cell-based. From the text: A study measuring the in vitro cytotoxic activity of Compound 1 was first performed by the NCI (National Cancer Institute, U.S. National Institutes of Health, Bethesda, Md., USA) against a panel of human cancer cell lines. This screen utilizes 60 different human tumor cell lines, representing cancers of the blood, skin, lung, colon, brain, ovary, breast, prostate, and kidney (More information available at: http://dtp.nci.nih.gov/branches/btb/ivclsp.html.) The compound was sent and tested on three occasions (Mar. 31, 2003; Dec. 1, 2003; Mar. 27, 2007).

Data set [5] deals with GL26 glioblastoma cell line. As to the kind of experiment: MTT cytotoxicity, GL26 cell line. It is filed as cell-based. To be noted: 96 h, Human. The protocol:
as §1

With `CC(C)=CCC/C(C)=C/CC/C(C)=C/CN1C(=O)c2cccc(O)c2Nc2c(O)cc(O)cc21` [Compound 1, 10-farnesyl-4,6,8-trihydroxy-5,10-dihydrodibenzo[b,e][1,4]diazepin-11-one], the concentration for half-maximal inhibition (IC50) in data set [1] is 3.8 ± 1.4 µM; in the data set on brain tumor cell lines, 1.6 to 8.9 µM; in data set [2], 6.5 ± 2.9 µM; with 9L gliosarcoma cell line, 8.3 ± 3.8 µM; in data set [5], 8.9 ± 1.1 µM. Moreover, the “inhibition of phospho-ERK in the FACE ELISA assay” value in data set [3] is on record as “inhibit the Ras-MAPK signaling pathway”. In addition, the “cytotoxic activity in NCI in vitro screening (in words)” value in data set [4] (60 cell lines) was “low micromolar range”. Besides, the GI50 in data set [4] (Breast carcinoma cell, breast carcinoma cell lines, read-out: GI50 range) lay in the range of 1.4 to 16.3 µM; in data set [4] (CNS (glioblastoma) cell lines, read-out: GI50 range), 2 to 6.5 µM; in data set [4] (Colon carcinoma cell, colon carcinoma cell lines, read-out: GI50 range), 3 to 17.3 µM; in data set [4] (Ovarian carcinoma cell, ovarian carcinoma cell lines, read-out: GI50 range), 2.5 to 6.2 µM; in data set [4] (leukemia cell lines, read-out: GI50 range), 0.9 to 5 µM; in data set [4] (melanoma cell lines, read-out: GI50 range), 1.8 to 8.1 µM. For the same compound, the concentration for 50% growth inhibition (GI50) is 1.9 to 10.8 µM in data set [4] (non-small cell lung carcinoma cell lines, read-out: GI50 range); 3.5 to 9.3 µM in data set [4] (prostate carcinoma cell lines, read-out: GI50); 2.9 to 14.5 µM in data set [4] (renal carcinoma cell lines, read-out: GI50 range).
